Test results from patent publication US8609656B2, “Heteroarylphenylurea derivative” (Chugai Seiyaku Kabushiki Kaisha, priority 2004, dated 2013).
≈ marks a conversion by molar mass, not a printed value.

Experiment: Solubility to fasted state simulated intestinal fluid
Format: physicochemical
Settings: fassif, kinetic from dmso stock, fasted state simulated intestinal fluid (pH 6.5), 37° C.
Method: Method of Measuring Solubility to Fasted State Simulated Intestinal Fluid
To a 96-well plate, 2 μL of a dimethyl sulfoxide solution of the compound relating to the present invention or that of the compound BAY 43-9006 was poured at one time, respectively, and fasted state simulated intestinal fluid (pH 6.5) was added 200 μL by 200 μL, and the plate was shaken at 37° C. for 20 hours. The solution was filtered with a membrane filter and 101 μL of the filtrate was transferred to an UV plate, and 100 μL of a mixed solution of ethanol:water=2:1 was added thereto. On the other hand, as a standard solution, 2 μL of a dimethyl sulfoxide solution was added to a solution containing 4 μL of dimethyl sulfoxide, 400 μL of ethanol and 200 μL of water and the obtained solution was transferred 101 μL by 101 μL to the UV plate and to this UV plate, the simulated fasting bile-containing intestinal juice (pH 6.5) was added 100 μL by 100 μL. The solubility was calculated by the following equation. Solubility=(absorbance of sample solution-blank)/(absorbance of standard solution-blank)×[…]
165 μL is a concentration of the standard solution.
Composition of Fasted State Simulated Intestinal Fluid
Fasted state simulated intestinal fluid was prepared in accordance with E. Galia et al., Pharm. Res., 698, 1998.
To about 90 mL of water, 161 mg of taurocholic acid, 59 mg of L-α-phosphatidylcholine, 0.39 g of potassium dihydrogenphosphate and 0.77 g of potassium chloride were added and the pH of the mixture solution […] and the mixture solution was filtered with a membrane filter.

Structure (SMILES)	solubility at 20 h
CNCCOc1cccc2c1ccn2-c1ccc(NC(=O)Nc2ccc(Cl)c(C(F)(F)F)c2)cc1.Cl [Table 1, Compound 21, 1-(4-Chloro-3-(trifluoromethyl)phenyl)-3-{4-[4-(2-methylamino-ethoxy)-indol-1-yl]phenyl}urea hydrochloride]	24 µg/mL
Cl.Nc1ncc2ncn(-c3ccc(NC(=O)Nc4ccc(Cl)c(C(F)(F)F)c4)cc3)c2n1 [Table 1, Compound 34, 1-[4-(2-Aminopurin-9-yl)phenyl]-3-(4-chloro-3-(trifluoromethyl)phenyl)urea hydrochloride]	34 µg/mL
CN(C)CCNC(=O)c1nccc2c1ncn2-c1ccc(NC(=O)Nc2ccc(Cl)c(C(F)(F)F)c2)cc1 [Table 1, Compound 92, 1-(4-[3-(4-Chloro-3-(trifluoro-methyl)phenyl)ureido]phenyl}-1H-imidazo[4,5-c]pyridine-4-carboxylic acid (2-dimethyl-aminoethyl)amide]	76 µg/mL (≈ 139 µM)
COCCOCCOCC(=O)Nc1ncnc2c1ncn2-c1ccc(NC(=O)Nc2ccc(Cl)c(C(F)(F)F)c2)cc1 [Table 1, Compound 109, N-(9-{4-[3-(4-Chloro-3-(tri-fluoromethyl)phenyl)ureido]-phenyl}-9H-purin-6-yl)-2-[2-(2-methoxyethoxy)ethoxy]acetamide]	39 µg/mL (≈ 64.1 µM)
COCCOC(=O)Nc1ncnc2c1ncn2-c1ccc(NC(=O)Nc2ccc(Cl)c(C(F)(F)F)c2)cc1 [Table 1, Compound 115, (9-{4-[3-(4-Chloro-3-(tri-fluoromethyl)phenyl)ureido]-phenyl}-9H-purin-6-yl)carbamic acid 2-methoxyethyl ester]	19 µg/mL (≈ 34.6 µM)
O=C(Nc1ccc(-n2cnc3c(NCCN4CCOCC4)ncnc32)cc1)Nc1ccc(Cl)c(C(F)(F)F)c1 [Table 2, Compound 11, 1-(4-Chloro-3-(trifluoromethyl)-phenyl)-3-{4-[6-(2-morpholin-4-yl-ethylamino)purin-9-yl]-phenyl}urea]	38 µg/mL (≈ 67.7 µM)
CN(C)Cc1nc2c(N)ncnc2n1-c1ccc(NC(=O)Nc2ccc(Cl)c(C(F)(F)F)c2)cc1 [Table 2, Compound 12, 1-[4-(6-Amino-8-dimethylamino-methyl-purin-9-yl)phenyl]-3-(4-chloro-3-(trifluoromethyl)-phenyl)urea]	265 µg/mL (≈ 525 µM)
CNc1ncnc2c1nc(OC)n2-c1ccc(NC(=O)Nc2ccc(Cl)c(C(F)(F)F)c2)cc1 [Table 2, Compound 21, 1-(4-Chloro-3-(trifluoromethyl)-phenyl)-3-[4-(8-methoxy-6-(methylamino)purin-9-yl)phenyl]-urea]	120 µg/mL (≈ 244 µM)
CCc1nc2c(N)ncnc2n1-c1ccc(NC(=O)Nc2cc(CN3CCN(C)CC3)cc(C(F)(F)F)c2)cc1 [Table 2, Compound 32]	175 µg/mL (≈ 316 µM)
CN1CCN(Cc2cc(NC(=O)Nc3ccc(-n4cnc5c(C(N)=O)nccc54)cc3)cc(C(F)(F)F)c2)CC1 [Table 2, Compound 33, 1-(4-{3-[3-(4-Methylpiperazin-1-ylmethyl)-5-(trifluoromethyl)-phenyl]ureido}-phenyl)-1H-imidazo[4,5-c]pyridine-4-carboxamide]	193 µg/mL (≈ 349 µM)
CN(C)CCN(C)c1ccc(NC(=O)Nc2ccc(-n3cnc4c(N)ncnc43)cc2)cc1C(F)(F)F [Table 2, Compound 35, 1-[4-(6-Aminopurin-9-yl)phenyl]-3-{4-[(2-dimetylaminoethyl)-methylamino]-3-(trifluoro-methyl)phenyl]urea]	149 µg/mL (≈ 290 µM)
CNc1ncnc2c1ncn2-c1ccc(NC(=O)Nc2cc(C(=O)N3CCN(C)CC3)cc(C(F)(F)F)c2)cc1 [Table 2, Compound 39]	48 µg/mL (≈ 86.7 µM)
CNc1ncnc2c1ncn2-c1ccc(NC(=O)Nc2ccc(CCCN3CCCC3)c(C(F)(F)F)c2)cc1 [Table 2, Compound 77, 1-[4-(6-(Methylamino)purin-9-yl)phenyl]-3-[4-[3-pyrrolidin-1-yl-propyl]-3-(trifluoromethyl)phenyl]-urea]	34 µg/mL (≈ 63.1 µM)
CNc1ncnc2c1ncn2-c1ccc(NC(=O)Nc2ccc(CNCCN3CCCC3)c(C(F)(F)F)c2)cc1 [Table 3, Compound 15]	104 µg/mL (≈ 188 µM)
